The assay deals with murine osteoclast precursors. Nature of the assay: TRANCE (RANKL)-induced osteoclast formation in vitro, TRAP assay. Format: cell-based. The settings on record: osteoclast precursors cultured 3 days with murine CSF-1 (30 ng/mL) and TRANCE (300 ng/mL); FIG. 1. How it is done: The effects of the compound of Formula II-A-1 on TRANCE-mediated osteoclastogenesis were evaluated against murine osteoclast precursors using a TRAP (tartrate resistant acid phosphatase) assay. The techniques comprising this method are described more fully in U.S. Pat. No. 6,673,771.
Osteoclast precursors were cultured in 96-well plates (1×10^5/mL, 200 μL/well) for 3 days in the presence of murine CSF-1 (30 ng/mL) and TRANCE (300 ng/mL) with or without the compounds of Formulae III-1 and II-A-1 at the indicated concentration. After 3 days, the cells were fixed and stained for tartrate-resistant acid phosphatase (TRAP). TRAP-positive multinucleated cells were counted as osteoclast-like multinucleated cells.

The record followed here is patent publication US20120108559A1, “RECEPTOR ACTIVATOR OF THE RANK RECEPTOR COMPLEX INHIBITOR” (THE TRUSTEES OF THE UNIVERSITY OF PENNSYLVANIA, priority 2009, published 2012).

In the case of `CC(=O)OCC12CCC(OC(C)=O)CC1(O)CC[C@@H]1[C@@H]2CCC2(C)C(C3=CC(=O)OC3)CCC12O` (some centres unmarked) [II-A-1], the “inhibition of TRANCE induced osteoclast formation (TRAP-positive multinucleated cells)” value was “inhibited TRANCE induced osteoclast formation in vitro in a dose-dependent manner”. In the case of `CC12CC[C@H]3[C@@H](CCC4(O)CC(OC(=O)CCC(=O)O)CCC34COC(=O)CCC(=O)O)C1(O)CCC2C1=CC(=O)OC1` (some centres unmarked) [III-1] it was “inhibited TRANCE induced osteoclast formation in vitro in a dose-dependent manner”.
